“And” between values parts separate entries of the source, which are not always exact repeats. Equal values may be shown once.
Test system: HEK293T NF-kB-Luc cytotoxicity, resazurin fluorescence, 14 h;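 active = compounds toxic to HEK293 cells with IC50 at or below 20 µM; inactive = the rest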
Experiment: cytotoxicity in HEK293T NF-kB-Luc cells, SAR follow-up, cytotoxicity control for NF-kB activator project, cell-based, resazurin fluorescence (AID 493251)

Structure (SMILES): CCCC(=O)NC(c1ccc(OC)cc1)c1ccc2cccnc2c1O (stereo unspecified)
- IC50: 15.8 µM and > 33.2 µM (inactive)

Source: PubChem BioAssay AID493251 (Sanford-Burnham Center for Chemical Genomics, 2011)
